The values that follow are results of earlier work, collected in paper PMC4077824, “Conserved Prosegment Residues Stabilize a Late-Stage Folding Transition State of Pepsin Independently of Ground States” (PLoS ONE, 2014).

The target in data set [1] is T1, native pepsin (Np) (Sus scrofa, UniProt P00791).
T1 construct: Only the R13 and K36 side-chains of the PS form hydrogen bonds with the mature pepsin domain; purchased Sigma (St. Louis, MO, USA)
Conditions: ref [7]; cited from earlier work. The text has this: (§1) Figure 1 Zymogen-derived proteins deviate from common trends in protein folding. (A) Comparison of the non- and PS-catalyzed folding of αLP [8], SGPB [5] and pepsin [7]. (B) Relation between topology and folding rate for a number of two- and three-state folding proteins (circles, data taken from, [21], [22]). The folding rate of αLP (squares), SGPB (triangles) and pepsin (stars) is accelerated to the value (hollow points) expected based on the topology, only when the PS is included. (C) Reaction scheme of pepsin PS-catalyzed folding. […] It seems likely that the PS has achieved this higher affinity for the TS via a concerted optimization of side-chain packing, hydrogen bonding and electrostatics, as evidenced by polar, hydrophobic and charged groups selectively stabilizing the TS ( Fig 3A ). Furthermore, this concerted optimization likely involves both non-native and strengthened native contacts, given the range of interactions involved. In the native fold [ ...

The target of data set [2] is T2, refolded pepsin (Rp) (Sus scrofa, UniProt P00791).
T2 construct: Only the R13 and K36 side-chains of the PS form hydrogen bonds with the mature pepsin domain; purchased Sigma (St. Louis, MO, USA)
T2 sequence (P00791 60-385): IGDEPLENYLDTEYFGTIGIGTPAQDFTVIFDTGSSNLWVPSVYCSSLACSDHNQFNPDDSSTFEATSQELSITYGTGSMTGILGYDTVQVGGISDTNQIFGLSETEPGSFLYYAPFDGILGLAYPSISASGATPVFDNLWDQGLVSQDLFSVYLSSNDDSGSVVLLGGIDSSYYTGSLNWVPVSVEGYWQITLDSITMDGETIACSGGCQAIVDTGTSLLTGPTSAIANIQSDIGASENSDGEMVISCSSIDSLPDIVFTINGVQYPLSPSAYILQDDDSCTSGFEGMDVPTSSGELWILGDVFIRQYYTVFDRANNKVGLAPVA
Conditions: ref [7]; cited from earlier work.
Source text: as §1

Where no end group is shown, it is not given here.

T1 sequence (P00791 60-385): as above

Consider “LVKVPLVRKKSLRQNLIKNGKLKDFLKTHKHNPASKYFPEAAAL [WT]”, for which, in data set [1], the “affinity for Np” value is reported as “nano-”. Also, in data set [2], the “affinity for Rp” value is reported as “micromolar”.
